Measurements taken from the SangsterLogP compilation.

Assay: method code SF-HPLC, from DOI: 10.1016/j.ejmech.2006.12.027, PMID: 17306423

SMILES | logP
COc1cc(C2=[N+]([O-])C(C)(C)C(C)(C)N2O)ccc1O | 1.14
CC1(C)N(O)C(c2ccc(Cl)cc2Cl)=[N+]([O-])C1(C)C | 1.93
COc1ccc(C2=[N+]([O-])C(C)(C)C(C)(C)N2O)cc1O | 0.92
COc1ccc(C2=[N+]([O-])C(C)(C)C(C)(C)N2O)c(OC)c1 | 0.77
CC1(C)N(O)C(c2cccc([N+](=O)[O-])c2)=[N+]([O-])C1(C)C | 1.64
CC1(C)N(O)C(c2ccccc2O)=[N+]([O-])C1(C)C | 1.17
CC1(C)N(O)C(c2ccccc2F)=[N+]([O-])C1(C)C | 0.82
CC1(C)N(O)C(c2ccccc2[N+](=O)[O-])=[N+]([O-])C1(C)C | 0.91
CC1(C)N(O)C(c2ccco2)=[N+]([O-])C1(C)C | 0.62
COc1ccc(C2=[N+]([O-])C(C)(C)C(C)(C)N2O)cc1OC | 1.15
CC1(C)N(O)C(c2cccnc2)=[N+]([O-])C1(C)C | 0.51

Results, then the compound that gave them:

logP | SMILES
-0.52 | CC1(C)N(O)C(c2ccc(OCC(=O)O)cc2)=[N+]([O-])C1(C)C
2.02 | CN(C)c1ccc(C2=[N+]([O-])C(C)(C)C(C)(C)N2O)cc1
2.33 | CC1(C)N(O)C(c2ccc(Cl)cc2)=[N+]([O-])C1(C)C
1.51 | CC1(C)N(O)C(c2ccc3c(c2)OCO3)=[N+]([O-])C1(C)C
1.68 | CC1(C)N(O)C(c2ccc([N+](=O)[O-])cc2)=[N+]([O-])C1(C)C
1.37 | CC1(C)N(O)C(c2ccccc2)=[N+]([O-])C1(C)C
1.14 | CC1(C)N(O)C(c2cccc(O)c2)=[N+]([O-])C1(C)C
1.62 | COc1ccc(C2=[N+]([O-])C(C)(C)C(C)(C)N2O)cc1
0.62 | CC1(C)N(O)C(c2ccc(O)cc2)=[N+]([O-])C1(C)C
1.9 | Cc1ccc(C2=[N+]([O-])C(C)(C)C(C)(C)N2O)cc1
2.46 | CC1(C)N(O)C(c2ccc(Br)cc2)=[N+]([O-])C1(C)C
